Data on eleven compounds can be found in ChEMBL document CHEMBL5370551, “Inside PD-1/PD-L1,2 with their inhibitors” (Eur J Med Chem, 2023).

Residues, ends and D or L forms follow the SMILES beside them.

In data set [1] the target is T1, Programmed cell death protein 1/Programmed cell death 1 ligand 1 (Homo sapiens, UniProt Q15116+Q9NZQ7). Description: Inhibition of PD-I/PD-L1 interaction (unknown origin). It is filed as protein-complex assay.
Data set [2] deals with T1, Programmed cell death protein 1/Programmed cell death 1 ligand 1. Description: Inhibition of biotinylated human PD-I /His-tagged PD-L1 (unknown origin) interaction incubated for 90 mins in dark condition by AlphaLISA assay. It is filed as protein-complex assay.
Data set [3] deals with B16-F10. Description: Antitumor activity against mouse B16-F10 expressing human PD-L1 allografted in C57BL/6 mouse assessed as inhibition of tumor growth at 10 mg/kg, ip administered every 2 days for 24 days relative to control. The format is functional. The note with it: B16-F10, 48 h, time 2 day.
Data set [4] relates to B16-F10. Description: Antitumor activity against mouse B16-F10 expressing human PD-L1 allografted in C57BL/6 mouse assessed as inhibition of tumor growth at 10 mg/kg, ip administered every 3 days for 24 days relative to control. The format is functional. Particulars: B16-F10, 72 h, time 3 day.
Data set [5] addresses Programmed cell death 1 ligand 1 (Homo sapiens) (UniProt Q9NZQ7). As to the kind of experiment: Inhibition of human recombinant extracellular domain PD-L1 in human DU-145 cells incubated for 1 hr relative to control. Particulars: concentration not given here. The format is cell-based.
Data set [6] addresses T1, Programmed cell death protein 1/Programmed cell death 1 ligand 1. As to the kind of experiment: Inhibition of biotinylated human PD-I/human PD-L1 interaction at 100 uM incubated for 2 hrs by ELISA relative to control. It is filed as protein-complex assay.
Data set [7] has the same target. Description: Inhibition of PD-I/PD-L1 interaction (unknown origin) by ELISA. The format is protein-complex assay.
For data set [8] the target is unchanged. As to the kind of experiment: Inhibition of PD-1/PD-L1 interaction (unknown origin) at 25 uM by AlphaLISA assay relative to control. The format is protein-complex assay.
Data set [9] has the same target. As to the kind of experiment: Inhibition of PD-1/PD-L1 interaction (unknown origin) by HTRF assay. The format is protein-complex assay.
Data set [10] has the same target. Description: Inhibition of Fc-fused recombinant human PD-I/His-tagged recombinant human PD-L1 interaction incubated overnight by HTRF assay. The format is protein-complex assay.
Data set [11] in a line: Cytotoxicity against human MDA-MB-231 cells assessed as reduction in cell growth by MTT assay. The format is toxicity, cell-based.
For data set [12], the target named is T1, Programmed cell death protein 1/Programmed cell death 1 ligand 1. As to the kind of experiment: Inhibition of PD-I/PD-L1 interaction (unknown origin) by HTRF assay. The format is protein-complex assay.
In data set [13] the target is T2, PD1-PDL2 (Homo sapiens, UniProt Q15116+Q9BQ51). Description: Inhibition of PD-I/PD-L2 interaction (unknown origin) expressed in HEK293 cells. It is filed as cell-based.
T2 sequence (Q15116 whole entry): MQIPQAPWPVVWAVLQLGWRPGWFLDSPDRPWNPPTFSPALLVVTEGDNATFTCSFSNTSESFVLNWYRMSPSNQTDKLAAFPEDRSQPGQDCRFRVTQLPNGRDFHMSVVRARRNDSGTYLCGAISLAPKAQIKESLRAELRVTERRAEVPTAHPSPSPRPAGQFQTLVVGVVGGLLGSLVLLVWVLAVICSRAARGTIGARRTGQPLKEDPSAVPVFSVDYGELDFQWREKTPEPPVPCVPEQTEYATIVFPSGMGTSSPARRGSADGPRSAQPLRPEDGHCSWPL
T2 sequence (Q9BQ51 whole entry): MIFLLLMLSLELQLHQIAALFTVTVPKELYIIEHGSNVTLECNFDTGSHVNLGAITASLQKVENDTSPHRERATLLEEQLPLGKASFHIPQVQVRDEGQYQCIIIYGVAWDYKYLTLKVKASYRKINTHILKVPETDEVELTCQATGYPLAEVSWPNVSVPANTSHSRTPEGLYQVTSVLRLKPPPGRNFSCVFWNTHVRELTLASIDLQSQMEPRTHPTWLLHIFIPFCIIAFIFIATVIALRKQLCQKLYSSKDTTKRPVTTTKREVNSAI
Data set [14] has as its target T2, PD1-PDL2. As to the kind of experiment: Inhibition of PD-I/PD-L2 interaction (unknown origin) expressed in human […] cells. The format is cell-based.
In another data set the test system is NCI-H292. Description: Cytotoxicity against human NCI-H292 cells assessed as inhibition of cell growth. The format is functional, cell-based.
The nature of data set [15]: Oral bioavailability in mouse. The format is ADME, organism-based. The note with it: in vivo.
For data set [16], the target named is Programmed cell death 1 ligand 1 (Homo sapiens) (UniProt Q9NZQ7). As to the kind of experiment: Induction of PD-L1 degradation in human NCI-H292 at 20 uM relative to control. It is filed as cell-based.
Programmed cell death 1 ligand 1 (Homo sapiens), sequence (Q9NZQ7 whole entry, the tested form may be a part): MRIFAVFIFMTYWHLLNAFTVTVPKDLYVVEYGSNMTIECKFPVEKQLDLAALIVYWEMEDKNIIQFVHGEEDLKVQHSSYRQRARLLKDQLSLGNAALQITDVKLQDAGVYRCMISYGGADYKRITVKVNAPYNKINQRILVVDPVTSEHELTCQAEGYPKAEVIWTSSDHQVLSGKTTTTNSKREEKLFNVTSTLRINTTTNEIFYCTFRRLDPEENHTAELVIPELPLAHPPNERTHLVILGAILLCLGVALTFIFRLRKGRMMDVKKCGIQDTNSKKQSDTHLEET

T1 sequence (Q15116 whole entry): as the sequence (Q15116 whole entry) above
T1 sequence (Q9NZQ7 whole entry): as the sequence (Q9NZQ7 whole entry, the tested form may be a part) above

`Cc1c(COc2ccc(CN[C@H](CO)C(=O)O)c(OCc3cccc(C#N)c3)c2)cccc1-c1ccc2c(c1)OCCO2` returned an IC50 in data set [1] of 2.25 nM. The compound `CO[C@H]1/C=C/O[C@@]2(C)Oc3c(C)c(O)c4c(c3C2=O)C2=NC3(CCN(CC(C)C)CC3)NC2=C(NC(=O)/C(C)=C\C=C\[C@H](C)[C@H](O)[C@@H](C)[C@@H](O)[C@@H](C)[C@H](OC(C)=O)[C@@H]1C)C4=O` [RIFABUTIN] yielded an IC50 in data set [2] of 25000 nM. For the compound `NC(=O)c1ccccc1NC(=O)c1ccc(-c2ccccc2)cc1`, the inhibition in vivo at 10 mg/kg in the data set on B16-F10 [3] came to 62%; with B16-F10 [4] it was 66%. As for `CC(C)C[C@H](NC(=O)[C@H](CC(N)=O)NC(=O)[C@H](Cc1c[nH]c2ccccc12)NC(=O)[C@@H](NC(=O)[C@H](Cc1ccc(O)cc1)NC(=O)[C@H](Cc1ccc(O)cc1)NC(=O)[C@H](CO)NC(=O)[C@H](CCCNC(=N)N)NC(=O)[C@H](Cc1c[nH]cn1)NC(=O)[C@@H](N)Cc1c[nH]c2ccccc12)[C@@H](C)O)C(=O)N[C@@H](CC(N)=O)C(=O)N[C@H](C(=O)O)[C@@H](C)O` (H-WHRSYYTWNLNT-OH), in data set [5], the inhibition came to 80%. As for `O=C(c1cc2ccccc2[nH]1)N1CCN(Cc2csc(-c3ccccc3)n2)CC1`, the inhibition in data set [6] came to 21%. For `CSCC[C@H](NC(=O)[C@H](CC(=O)O)NC(=O)[C@H](Cc1ccccc1)NC(=O)[C@H](CCCNC(=N)N)NC(=O)[C@H](Cc1ccc(O)cc1)NC(=O)[C@H](CC(=O)O)NC(=O)[C@H](CCCNC(=N)N)NC(=O)[C@H](Cc1c[nH]c2ccccc12)NC(=O)[C@@H](NC(=O)[C@H](Cc1c[nH]c2ccccc12)NC(=O)[C@@H](N)CCCNC(=N)N)C(C)C)C(=O)NCC(=O)N[C@@H](Cc1ccccc1)C(=O)N[C@@H](CC(=O)O)C(=O)N[C@@H](Cc1c[nH]c2ccccc12)C(=O)N[C@H](C(=O)N[C@@H](Cc1c[nH]c2ccccc12)C(=O)N[C@@H](CCC(=O)O)C(=O)O)C(C)C` (H-RWVWRDYRFDMGFDWVWE-OH), 600 nM corresponded to half-maximal inhibition in data set [7] (IC50). On to `Cc1cc(/C=C/c2ccc3cc(N(C)C)ccc3[n+]2C)c(C)n1-c1ccccc1`, for which, in data set [8], the inhibition stood at 44.5%. Moreover, the IC50 in [9] is 30000 nM. With `Cc1c(NC(=O)c2ccc(CNCCO)cn2)cccc1-c1cccc(NC(=O)c2ccc(CNCCO)cn2)c1C`, in data set [10], the IC50 turned out to be […]. Turning to `COc1nc(-c2cccc(-c3ccccc3F)c2C)ccc1CNCCC(N)=O`, the EC50 in [11] was found to be 11100 nM. The compound further showed an IC50 in data set [12] of 0.9 nM. `CC[C@H](C)[C@H](NC(=O)[C@H](CCC(N)=O)NC(=O)[C@H](C)NC(=O)[C@H](CCCCN)NC(=O)[C@@H]1CCCN1C(=O)[C@H](C)NC(=O)[C@H](CC(C)C)NC(=O)[C@H](CCC(N)=O)NC(=O)[C@@H](NC(=O)[C@@H](NC(=O)[C@H](CCCNC(=N)N)NC(=O)[C@H](Cc1ccccc1)NC(=O)[C@H](CCCCNC(=O)[C@H](Cc1ccccc1)NC(=O)[C@H](CO)NC(=O)[C@H](CCC(=O)O)NC(=O)[C@H](CO)NC(=O)[C@@H](NC(=O)[C@H](CC(N)=O)NC(=O)[C@@H](N)CO)[C@@H](C)O)NC(=O)[C@H](Cc1ccccc1)NC(=O)[C@H](CO)NC(=O)[C@H](CCC(=O)O)NC(=O)[C@H](CO)NC(=O)[C@@H](NC(=O)[C@H](CC(N)=O)NC(=O)[C@@H](N)CO)[C@@H](C)O)C(C)C)[C@@H](C)O)C(=O)N[C@@H](CCCCN)C(=O)N[C@@H](CCC(=O)O)C(N)=O`: the EC50 on PD1-PDL2 [13] was 0.72 nM; on PD1-PDL2 [14], 0.41 nM.

With `CC1=C(C(=O)OCc2ccccc2)C(CC(C)(C)C)C(C(=O)OCc2ccccc2)=C(C)N1`, in the data set with NCI-H292, the IC50 stood at 62000 nM. The same compound came in with a bioavailability in data set [15] of 25%. In [16], this compound came in with an Activity of 67%.
